Results reported in a melting point compilation (Tetko et al.; mined from patent text by program, amines drawn as free bases though some values may be those of a salt).

Structure (SMILES) | melting point [°C]
C=C(C)C(=O)OC1=CC(C(=O)O)C(O)(C(C)=O)C=C1 (stereo unspecified) | 150
CCOC(=O)c1cn(CC)nc1O | 109 to 110
COC(=O)c1ccc(SCc2c(O[C@H](Cn3ccnc3)c3ccccc3)ccc3c2CCCC3=O)cc1 | 75
CCCCCCCCCCC[C@]1(C)OO[C@@H]2C[C@H]1CC(=O)[C@@H]2C | 42
Cc1ccc(SCC(=O)c2cc(O)c(O)c([N+](=O)[O-])c2)cc1 | 115 to 116
CS(=O)(=O)c1ccc(C=Cc2ccc(NCCCCCCO)cc2)cc1 | 113 to 115
CCOC(=O)c1c(CCc2ccccc2)nc2c(cnn2CC)c1O | 153 to 155
CC(C(=O)Nc1ccc2[nH]c(=O)oc2c1)N1CCC(Cc2ccccc2)CC1 (stereo unspecified) | 116 to 118
COc1ccc2c(c1)CCC(C(=O)O)O2 (stereo unspecified) | 131 to 135
ClCc1cn2ccccc2n1 | 93 to 94
S=C(NN=Cc1cccc(-c2ccc(Cl)cc2Cl)n1)NN1CCCC1 | 155 to 156
C=CCOc1cc(OC(=S)N2CCSC2)ccc1Cl | 104 to 106
COc1cc2c(Cl)c(C(=O)Cl)sc2cc1OCc1ccccc1 | 144 to 152
COc1ccc(Oc2c(C)cc(CO)cc2C)cc1C(C)C | 78 to 80
OCCCCNC1CCCCC1 | 48 to 50
CCCNC(=O)N1C2=NC(C)(C)N(CCC)C(=O)N2c2ccccc21 | 72 to 74
N#Cc1ccccc1OC[C@H]1CO1 | 84 to 86
CCOP(=O)(OCC)/C(O)=C/c1cn(-c2ccccc2)nc1OCc1ccc(OCc2nc(-c3ccco3)oc2C)c(OC)c1 | 147 to 149
O=c1[nH]c2cc(F)c([N+](=O)[O-])cc2o1 | 207 to 209
CC(C)(C)OC(=O)N1CCC(CC(O)c2c3c(nn2-c2ccccc2)c(=O)[nH]c2ccccc23)CC1 (stereo unspecified) | 253 to 254
COc1nc(Cn2cncn2)cnc1NS(=O)(=O)c1cccc(Cl)c1Cl | 95 to 105

Structure (SMILES) | melting point [°C]
COc1ccc2sc(Nc3ccc(OCCN4CCCC4)cc3)nc2c1 | 167 to 168
C[Si](C)(C)C#Cc1c(C#N)nn(-c2c(Cl)cc(OC(F)(F)F)cc2Cl)c1N | 152
Cc1ncc(Cn2c(CC3CCN(CCc4c(C)nc5sccn5c4=O)CC3)nc3ccccc32)o1 | 174
Cc1sc2c(c1CCN1CCC(c3noc4cc(F)ccc34)CC1)CCN(C(=O)c1ccccc1)C2 | 192 to 195
Cc1ccccc1C(=O)Nc1ccc(C(=O)N2CCCC(NC(=O)Nc3ccccc3)c3ccccc32)cc1 (stereo unspecified) | 269 to 271
Cc1nc(Cl)c([N+](=O)[O-])c(N2CCc3ccccc3CC2)n1 | 161 to 165
CCC1C(=O)c2cc(OC)c(Cl)c(Cl)c2C1=O (stereo unspecified) | 153 to 154
CC1(C)CC(=O)C(C(=S)Nc2ccc(Cl)c(C(F)(F)F)c2)C(=O)C1 | 101 to 102
O=S1(=O)C=C(N2CCCCC2)c2ccccc2O1 | 187 to 189
Cc1cc2nc3c4cc(Br)ccc4n(CCN(C)C)c3nc2cc1C | 146 to 147
COc1cccc(C(=C/C=C/C(=O)NCCCCCCc2cccnc2)c2cccc(OC)c2)c1 | 66 to 70
O=c1c2ccc(Cl)cc2sn1CCCCl | 89
CC(Cl)C(=O)Oc1coccc1=S (stereo unspecified) | 118 to 119
COc1ccccc1C(CSc1ccccc1N)C(=O)O (stereo unspecified) | 85
CCOC(=O)c1c(CN(CC)CC)nc2sc3ccncc3c2c1-c1ccc(OC)c(OC)c1 | 141 to 142
COc1cc2c(=O)n(Cc3ccc([N+](=O)[O-])cc3)c3cc(OC)c(OC)cc3c2cc1OC | 199 to 200
CCCCCCCCNC(=O)n1nc(Oc2ncc(C(F)(F)F)cc2Cl)c(Cl)c1C | 61 to 62
OCc1cccc(Cc2c[nH]cn2)c1O | 152 to 155
CSc1nc(O)c(-c2ccccc2F)c(O)n1 | > 240
C#CCN(c1ccc(C(=O)OC(C)(C)C)c(F)c1)C1CCc2cc3nc(C)[nH]c(=O)c3cc21 (racemic) | 248 to 250
CCCCCCCCCC(O)CCc1ccc(O)c(OC)c1 (stereo unspecified) | 66 to 68

Structure (SMILES) | melting point [°C]
CC[C@H]1Oc2ccccc2C(=O)N2CCC[C@@H]12 | 118 to 119
OCCSCc1ccc(CSCCO)cc1 | 90 to 92
CCCCCCCCCCCCCCCCCCNC(=O)OCC(CNS(=O)(=O)CCCI)Oc1ccon1 (stereo unspecified) | 69 to 71.5
COC(=O)[C@](C)(Cc1ccc(N(C(=O)OC(C)(C)C)C(=O)C2CCNCC2)cc1)n1nnnc1C1CCCN1S(=O)(=O)c1ccc(C)cc1 (stereo partly specified) | 92 to 102
CCCS(=O)(=O)c1ccc(NC(=O)CCCCCCCCCC=C(F)F)cc1 | 67 to 70
Cn1c(CCNC(=O)c2cc(F)cc3c2OCOC3)nc(-c2ccncn2)cc1=O | 207 to 209
FC(F)(F)c1ccc2nc3c(nc2c1)OCC1CCCCN31 (stereo unspecified) | 154 to 156
CC(=O)OC1CSC(Oc2cnccc2-c2c(C)noc2C)C(OC(C)=O)C1OC(C)=O (stereo unspecified) | 150 to 155
CCN(c1ccc(OCc2ccc(OC(F)(F)F)cc2)cc1)C1CCN(c2ccc(OC[C@H]3CCn4cc([N+](=O)[O-])nc4O3)cc2)CC1 | 95.2 to 97
CCCCCCCCCCCCCCCCNC(=O)c1ccc(-n2oc(C(C)(C)C)c(COc3ccc(N)cc3)c2=O)c([N+](=O)[O-])c1 | 220
CCCc1c(-c2cc(=O)c3c(O)c(CCC)c(OCC4=COC(C)(C)O4)cc3o2)ccc(OC)c1O | 148
CCCCCCCCCCCCCCCCCC(=O)OCCOc1ccc(C2C(=O)Oc3c2cc(C(C)(C)C)cc3C(C)(C)C)cc1 (stereo unspecified) | 54 to 60
COC(=O)c1c(OC(C)=O)cc2cc(Br)ccc2c1C | 78
CSc1cc2c(cc1C(F)(F)F)N(C(=O)Nc1cccc(C(=O)NCCN(C(C)C)C(C)C)c1)CC2 | 97 to 99
CCOC(=O)c1cc(CC)sc1Nc1cc(F)cc(F)c1[N+](=O)[O-] | 74 to 75
COc1cccc2c(=O)n(C(C)(C)C(=O)O)c(=O)[nH]c12 | 255 to 258
CN1CCC(OC(c2cccc(N=[N+]=[N-])c2)c2nc3ccccc3[nH]2)CC1 (stereo unspecified) | 53
CCOC(=O)c1cnn(-c2cccc(Cl)c2)c1Cl | 61 to 63
COc1nc(C(F)(F)F)cc(=O)n1-c1cc(OCCON=C(C)C)c(Br)cc1F | 149 to 150

Second part, the molecule after the results:

melting point [°C] | Structure (SMILES)
188 | O=C1c2ccccc2C(=O)N1CCCS(=O)(=O)c1ccc(Cl)cc1
140 to 144 | CC(CNc1ccc(C(=O)O)cc1)Oc1ccccc1 (stereo unspecified)
113 to 115 | CN(C)CCOC(=O)c1cc2cccc(OCc3ccccc3)c2[nH]1
171 to 172 | COc1cccc2oc(-c3ccc(Cl)cc3)cc(=O)c12
229 to 230 | O=C(O)c1cccc(-c2nc(-c3cccc(C(F)(F)F)c3)cs2)c1
194 | ON=C(c1ccc(Cl)cc1)c1cccc2nc(N[C@@H]3CCc4ccccc43)ccc12
238 to 240 | CC(C)(C)OC(=O)NCc1ccc(CC(=O)Nc2ccc(Nc3cc(-c4cccc5c4oc4ccccc45)ncn3)cc2)cc1
105 to 110 | CN(CCCCNC(=NCCCOc1cccc(CN2CCCCC2)c1)NC#N)CCC(c1ccc(F)cc1)c1ccccn1 (stereo unspecified)
110 to 112 | Fc1ccc(-c2nccc3c(CCl)cccc23)cc1
103 to 105 | COC(=O)C(=O)c1ccc(OCCOc2ccc(Cl)cc2)cc1
185 | O=C(O)c1cc(-c2ccc(Cl)cc2)n(-c2ccc(Cl)cc2Cl)n1
96 to 97 | CCOC(=O)CC(C)(O)c1ccc(-c2ccc(F)cc2F)cc1 (stereo unspecified)
248 to 249 | CN1C(=O)CC(c2ccc(O)cc2)C1C(O)c1ccc(-c2ccccc2)s1 (stereo unspecified)
160 to 165 | C(=NNc1cc(N2CCOCC2)nc(OCCc2ccccn2)n1)c1c[nH]c2ccccc12
112 to 115 | O[C@@H]1CNC[C@H]1Oc1cccc2ccccc12 (relative stereo)
159 to 160 | CCCCCc1nc2c(N)nc3ccccc3c2n1CCCCNC(=O)Nc1ccccc1
74 to 76 | CCC(=S)c1ccc(NS(C)(=O)=O)c(Oc2ccc(F)cc2F)c1
158 to 161 | Cc1cccc(-c2[nH]c(C(C)C)nc2-c2cccc(-n3ccnc3)c2)n1

melting point [°C] | Structure (SMILES)
118 to 120 | COC(=O)C(O)=CC(=O)N(Cc1ccc(F)cc1)Cc1ccc(F)cc1
121 to 123 | OCC=Cc1ccc(-c2ccc(OC(F)(F)F)cc2)cc1
245 to 249 | CCn1c(=N)c(-c2ccc(-c3ccccc3)cc2)cc2cnc(Nc3ccccc3)nc21
142 to 143 | Clc1cc(CCc2ccccn2)c2oc(-c3nccc4ccccc34)nc2c1
56 to 61 | CC1(C)C(=NOCc2ccccc2)C(c2ccc(S(C)(=O)=O)cc2)=C1c1ccccc1
228 to 231 | CC(=O)Nc1c(C(=O)c2cccs2)[nH]c2cc(Cl)ccc12
120 to 125 | CC(C)(CCl)C(O)C(Oc1ccc(Cl)cc1)n1ccnc1 (stereo unspecified)
107 to 109 | Fc1ccc(CNc2nc(OCC(F)(F)F)nc(Oc3cccc(C(F)(F)F)c3)n2)cc1
150 to 156 | ON=C(c1ccc(F)cc1)c1ccc(O)c(Cl)c1Cl
253 to 254 | Cc1ccc(OCC(=O)O)c2c3c(C(N)=O)cccc3n(Cc3ccccc3)c12
70 to 71 | COc1ccc2c(n1)c(CCNC(=O)c1ccco1)c1n2CCCc2ccccc2-1
193 to 196 | Cc1cc2cc(CN3CCC(CCC(=O)N(C)C)CC3)cnc2cc1NC(=O)c1ccc(-c2ccc(F)cc2)cc1
135 to 136 | CCc1nc(-c2ccc(OCCCN3C(=O)c4ccccc4C3=O)cc2)no1
226 to 227 | Cc1nc2c(OCc3c(Cl)ccc(N(C)C(=O)CN4C(=O)c5ccccc5C4=O)c3Cl)cccc2n1C
146 to 156 | Cc1cc(C#N)nc(-c2ccc([N+](=O)[O-])cc2)c1
150 | CN(C)c1nc(NCc2ccc(NC(=O)c3ccc(F)cc3)cc2)c2ccc(C#N)cc2n1
243 to 245 | O=S(=O)(c1ccc(O)c(-c2ccccc2)c1)c1ccc(O)c(-c2ccccc2)c1
